Assay results reported in patent publication US8569378B2, “p27 protein inducer” (Chugai Seiyaku Kabushiki Kaisha, priority 2007, dated 2013).

Columns and labels:
p27 protein [1] = assay: Detection of p27 protein by Western blotting in NCI-H460 cell lysate; assay type: cell-based, human; conditions: NCI-H460 cells; 0.3-30 μmol/L; KIP-10 48 hours, KIP-12 24 hours; FIGS. 1 and 3
Protocol: (§1) The p27 protein-inducing activities of KIP-10 (the compound represented by formula (C)) and KIP-12 (the compound represented by formula (D)) were measured as follows.
(§2) Preparation of Cell Lysate:
(§3) NCI-H460 human non-small cell lung cancer cells (ATCC HTB-177), DU-145 human prostate cancer cells (ATCC HTB-81) or HCT116 human colon cancer cells (ATCC CCL-247) were plated in 6-well plates at 2×10^5 cells/well and incubated overnight. Then, the test substance was added to the medium to a final concentration of 0.3 μmol/L, 1 μmol/L, 3 μmol/L, 10 μmol/L or 30 μmol/L or was not added and the cells were incubated at 37° C. in 5% CO2 for 48 or 24 hours. The cells were washed with cold PBS(−), which was then completely removed. 0.35 mL of Cell Lysis Buffer (catalog no. 9803, Cell Signaling) which had been diluted to 1-fold concentration was added, and the mixture was allowed to stand on ice for 10 minutes. The Cell Lysis Buffer in which cells were lysed was collected together with cells and subjected to sonication (speed 1, duty 80) for 10 seconds. […]
(§4) The total protein concentration in the supernatant was determined with a DC Protein Kit (catalog no. 500-0122, Bio-Rad). […] After washing three times with TBS-T, it was immersed in ECL kit reagent (catalog no. RPN2132, Amersham) for 1 minute and the band was detected with a chemiluminescence reader. […]

p27 protein [2] = assay: Quantification of p27 protein by ELISA (p27 protein-inducing activity, EC50); assay type: cell-based, human; conditions: NCI-H460 cells, 48 hours, p27 sandwich ELISA; Table 1-2
Protocol: The p27 protein-inducing activities of the compounds or salts listed in Tables 1-1, 1-2 and 2 below were measured as follows.
as §2
NCI-H460 human non-small cell lung cancer cells (ATCC HTB-177) were plated in 6-well plates at 2×10^5 cells/well and incubated overnight. Then, the test substance was added to the medium to a final concentration of 10000 nmol/L, 3000 nmol/L, 100 nmol/L, 30 nmol/L, 10 nmol/L, 3 nmol/L, 1 nmol/L, 0.3 nmol/L, 0.1 nmol/L, 0.03 nmol/L or 0.01 nmol/L and the cells were incubated at 37° C. in 5% CO2 for 48 hours. 150 μL of Cell Lysis Buffer (catalog no. 9803, Cell Signaling) which had been diluted to 1-fold concentration (1 mM PMSF was added immediately before use) was added, and the mixture was allowed to stand on ice for 10 minutes. The Cell Lysis Buffer in which cells were lysed was collected together with cells with a scraper and transferred to a new tube. It was centrifuged at 15000 rpm for 10 minutes at 4° C. and the supernatant was then transferred to a new tube.
Quantification by Sandwich ELISA:
Anti-p27 monoclonal antibody (catalog no. 71-9600, Zymed) was diluted to 5 μg/mL in 50 mM carbonate coating buffer (0.4 g/L NaCO3, 0.73 g/L NaHCO3 and 0.04 g/L NaN3 in distilled water), and it was then added at 50 μL/well and allowed to stand overnight at 4° C. to bind the antibody. After washing three times with PBS, 200 μL of blocking solution (0.2% I-Block in PBS) was added to each well. After 1 hour of incubation at room temperature, washing with PBS-T (0.05% Tween 20 in PBS) was performed three times. The sample and recombinant p27 protein standard were serially diluted in Cell Lysis Buffer (catalog no. 9803, Cell Signaling) which had been diluted to 1-fold concentration (1 mM PMSF was added immediately before use), and it was then added at 100 μL/well. After 1 hour of incubation at room temperature, washing with 200 μL of PBS-T was performed three times. HRP-labeled anti-p27 antibody (product no. 610243, BD Transdution Laboratories) was diluted 1:2500 (i.e. to 0.1 μg/mL) in 0.2% I-Block/0.05% PBS-T, and it was then added at 100 μL/well. After 1 hour of incubation at room temperature, washing with 200 μL of PBS-T was performed three times. Chromogenic substrate solution (TMB One Solution, catalog no. G7431, Promega) was added at 100 μL/well and allowed to develop a color reaction at room temperature. After stopping the reaction with 50 μL of 1N H2SO4, the absorbance at 450 nm was measured.
Calculation of EC50 Values:
A standard response curve was generated by plotting the amount of p27 protein against the concentration of the test substance. The basal level of response was defined as 0%, while the plateau level where the induction of p27 protein had been maximized was defined as 100%. Finally, the test substance concentration at which 50% induction was achieved was calculated, and it was defined as EC50.

p27 protein [3] = assay: Detection of p27 protein by Western blotting in DU-145 cell lysate; assay type: cell-based; conditions: DU-145 human prostate cancer cells; 0.3-30 μmol/L; 48 hours; FIG. 2
Protocol: as §1, §2, §3, §4

p27 protein [4] = assay: Detection of p27 protein by Western blotting in HCT116 cell lysate; assay type: cell-based; conditions: HCT116 human colon cancer cells; 0.3-30 μmol/L; 24 hours; FIG. 4
Protocol: as §1, §2, §3, §4

Row | SMILES | p27 protein-inducing activity (Western blotting) (p27 protein [1]) | EC50 (p27 protein [2]) | p27 protein-inducing activity (Western blotting) (p27 protein [3]) | p27 protein-inducing activity (Western blotting) (p27 protein [4])
1 | Cc1c(Cc2ccccc2N)c(=O)oc2cc(OC(=O)N(C)C)c(Cl)cc12 [KIP-10, dimethylcarbamic acid 3-(2-aminobenzyl)-6-chloro-4-methyl-2-oxo-2H-1-benzopyran-7-yl ester] | sufficiently high p27 protein-inducing activity | 6 µM | sufficiently high p27 protein-inducing activity | 
2 | Cc1nn(Cc2ccc(C(=O)Nc3nc4ccccc4s3)cc2)c(C)c1[N+](=O)[O-] [KIP-12] | sufficiently high p27 protein-inducing activity |  |  | sufficiently high p27 protein-inducing activity
